The subject of this test is grossesse apparemment normale et une aménorhée de 49 jours au plus. Description: Clinical study of termination of early pregnancy: oral RU 486 alone or with an intramuscular sulprostone injection. The format is in vivo, jeunes femmes. Here is the method: L'étude a porté sur 33 jeunes femmes en bonne santé présentant une grossesse apparemment normale et une aménorhée de 49 jours au plus.
Le composé RU 486 a été administré oralement à différentes doses : • 1) 25 mg 2 fois par jour pendant 4 jours. • 2) 25 mg 4 fois par jour pendant 4 jours.
Chez 16 patientes une injection intramusculaire de 0,25 mg de la méthylsulfonylamide de la 16-phénoxytétranor PG E2 (sulprostone) a été administrée le matin du dernier jour de traitement par le RU 486. Les sujets ont jeuné au moins une heure avant jusqu'à une heure après la prise du produit.
Les résultats obtenus sont rapportés dans le tableau I ci-après.

The mark [1] stands for this setting: number of patients, RU 486 25 mg orally 2 times per day for 4 days (25 x 2), n=11 group A, n=9 group B.
Where [2] appears, read: number of patients, RU 486 25 mg orally 4 times per day for 4 days (25 x 4), n=6 group A, n=7 group B.
[3] abbreviates: number of patients, Total of both RU 486 doses, n=17 group A, n=16 group B.
[4] abbreviates: percent of patients, Total of both RU 486 doses, n=17 group A.

Structures are written as SMILES. Marks after values point to notes of the source that are not given here.

For the molecule `CC#C[C@]1(O)CC[C@H]2[C@@H]3CCC4=CC(=O)CCC4=C3[C@@H](c3ccc(N(C)C)cc3)C[C@@]21C` [RU 486, 11β-(4-diméthylaminophényl) 170 - hydroxy 17α-(prop-l-ynyl) estra 4,9 - dièn 3 - one], the Avortements complets by setting is: under setting [1], 8; under setting [2], 5; under setting [3], 13; (percent of patients, Total of both RU 486 doses, n=17 group A, n=16 group B) 76,5%. The Avortements incomplets under setting [1] turned out to be 1, the Avortements incomplets under setting [2] amounted to 0, the Avortements incomplets under setting [3] turned out to be 1 and the Avortements incomplets under setting [4] is 5,9%. For the same molecule, the “Poursuite de la grossesse” value is on record as 2* (number of patients, RU 486 25 mg orally 2 times per day for 4 days (25 x 2), n=11 group A, n=9 group B, group A value includes one extra-uterine pregnancy); 1 under setting [2]; 3 under setting [3]; 17,6% under setting [4].
